Measured values reported in ChEMBL document CHEMBL1150333, “Isolation and antimalarial activity of new morphinan alkaloids on Plasmodium yoelii liver stage” (Bioorg Med Chem, 2008).
Active and inactive are the calls of the source. The calls are words filed in the database; no cut-off is given here.

Tests used:
Plasmodium yoelii yoelii [1] = assay: Antimalarial activity against Plasmodium yoelii 265 sporozoites in primary mice (Mus musculus) hepatocytes after 48 hrs; type: functional, organism-based; conditions: 265 BY, Hepatocyte
[2] = Cytotoxicity against primary mouse hepatocytes after 48 hrs by neutral red assay; type: cell-based, Hepatocyte; conditions: read-out: TC50
[3] = Selectivity index, ratio of TC50 for primary mice (Mus musculus) hepatocytes to IC50 for Plasmodium yoelii yoelii 265 BY liver stage sporozoites; set-up: species or system Hepatocyte
Plasmodium yoelii yoelii [4] = assay: Antimalarial activity against Plasmodium yoelii 265 BY liver stage sporozoites in primary mice (Mus musculus) hepatocytes at 38.6 uM after 48 hrs; type: functional; conditions: Hepatocyte
Plasmodium yoelii yoelii [5] = assay: Antimalarial activity against Plasmodium yoelii 265 BY liver stage sporozoites in primary mice (Mus musculus) hepatocytes at 7.1 uM after 48 hrs; type: functional, organism-based; conditions: Hepatocyte

Row | Structure (SMILES) | IC50 (Plasmodium yoelii yoelii [1]) | CC50 at 48 h [2] | Ratio [3] | inhibition in vivo at 38.6 µM (Plasmodium yoelii yoelii [4]) | Activity (Plasmodium yoelii yoelii [5])
1 | COC1=C2[C@H]3NCC[C@]2(C[C@H](O)[C@@H]1O)c1c(ccc(OC)c1O)[C@@H]3O[C@@H]1O[C@H](CO)[C@@H](O)[C@H](O)[C@H]1O | > 390 µM | > 390 µM | – | – | –
2 | COC1=C2[C@H]3NCC[C@]2(C[C@H](O)[C@@H]1O)c1c(ccc(OC)c1O)[C@@H]3O | 16.1 µM | 388 µM | 24.1 | – | –
3 | COc1cc(NC(C)CCCN)c2ncccc2c1 (stereo unspecified) [PRIMAQUINE] | 0.64 µM | 70.5 µM | 110 | 80% | –
4 | COC1=C2[C@@H]3Cc4ccc(OC)c(O)c4[C@]2(CCN3)C[C@H](O)[C@@H]1O [SINOCOCULINE] | 4.5 µM | 62.2 µM | 13.8 | – | –
5 | COC1=C2[C@H]3NCC[C@]2(C[C@H](O)[C@@H]1O)c1c(ccc(OC)c1O)[C@H]3O [TAZOPSINE] | 3.1 µM | 43.7 µM | 14 | – | Active
